Common to all, as to type: cell-based
The test system of experiment [1] is 786-O (CD70 positive) cells. Briefly: In vitro cytotoxicity in CD70 positive 786-O cells (CellTiter-Glo 2.0, 4 days). The following applies: Homo sapiens; for Emax at 0.025 µM: maximal killing at 25 nM. The method, then:
(§1) Small molecule duocarmycin analogs (compounds 4, 13, 15, 17 and 38) and anti-CD70 ADCs (anti-CD70-12, anti-CD70-14, anti-CD70-16 and anti-CD70-18) were evaluated for cytotoxicity. Briefly, 786-0 (CD70 positive) cells were seeded into 96-well clear bottom white plate at 1,000 cells/well and incubated overnight in a 37° C. and 5% CO2 incubator. NCI-H929 (CD70 negative) cells were seeded 30,000 cells/well just before the time of treatment of test articles. The serially diluted small molecule drugs or anti-CD70 ADCs were added to the wells and the plates were incubated for 4 days in a 37° C. and 5% CO2 incubator. At the end of incubation, CellTiter-Glo2.0 Reagent (Promega, Madison, WI) was added to the room temperature equilibrated plates and luminescence was measured in a SpectraMax M5E plate reader. The relative viability was calculated as a percentage of untreated cells. The half-maximal inhibitory concentration (IC50) was determined by a nonlinear 4-parameter dose-response curve fitting using GraphPad Prism (GraphPad Software, San Diego, CA). The maximal killing (Emax) was determined by subtracting the % viability at the indicated dose from 100%.
For orientation: Cellular ATP, detected with luciferase, serves as a proxy for viable cell number.

The subject of experiment [2] is NCI-H929 (CD70 negative) cells. Briefly: In vitro cytotoxicity in CD70 negative NCI-H929 cells (CellTiter-Glo 2.0, 4 days). The conditions noted are these: Homo sapiens, 96 h; for Emax at 0.025 µM: maximal killing at 25 nM. The method, then: as §1
Experiment [3] has as its system SNU449 (GPC3 negative) cells. Briefly: In vitro cytotoxicity in GPC3 negative SNU449 cells (CellTiter-Glo 2.0, 3 days). The conditions noted are these: Homo sapiens, SNU-449, 72 h; for Emax at 0.03 µM: maximal killing at 30 nM. The method, then: (§2) Anti-GPC3 ADCs were prepared via conjugation of GPC3 clone 1 mAb containing non-natural amino acid pAF with each of compounds 12, 14, 16 and 18. The corresponding ADCs (hereinafter, anti-GPC3-12, anti-GPC3-14, anti-GPC3-16 and anti-GPC3-18 respectively) and small molecule duocarmycin analogs (compounds 15 and 17) were evaluated for cytotoxicity. Briefly, HepG2 and SNU449 cells were seeded into 96-well white opaque plate at 3,000 cells/well and incubated overnight in a 37° C. and 5% CO2 incubator. The serially diluted small molecule drugs or anti-GPC3 ADCs were added to the wells and the plates were incubated for 3 days in a 37° C. and 5% CO2 incubator. At the end of incubation, CellTiter-Glo2.0 Reagent (Promega, Madison, WI) was added to the room temperature equilibrated plates and luminescence was measured in a SpectraMax M5E plate reader. The relative viability was calculated as a percentage of untreated cells. The half-maximal inhibitory concentration (IC50) was determined by a nonlinear 4-parameter dose-response curve fitting using GraphPad Prism (GraphPad Software, San Diego, CA). The maximal killing (Emax) was determined by subtracting the % viability at the indicated dose from 100%.

Experiment [4] has as its system HepG2 (GPC3 positive) cells. Briefly: In vitro cytotoxicity in GPC3 positive HepG2 cells (CellTiter-Glo 2.0, 3 days). The conditions noted are these: Homo sapiens, 72 h; for Emax at 0.03 µM: maximal killing at 30 nM. The method, then:
as §2

The mark [5] stands for this setting: 786-0, 96 h, 786-O (CD70 Positive), 4 days.

By IC50 is commonly meant the concentration that gives 50% inhibition. Low readings indicate higher potency, high ones lower potency. The Emax is the maximal effect, on the per cent scale that the assay sets.

In experiment [1] (setting [5]), `COc1cc2cc(C(=O)N3C[C@@H](CCl)c4c3cc(O)c3[nH]c(C(=O)N5CCc6ccccc65)cc43)[nH]c2c(OC)c1OC` [Compound 4, (S)-(8-(chloromethyl)-4-hydroxy-6-(5,6,7-trimethoxy-1H-indole-2-carbonyl)-3,6,7,8-tetrahydropyrrolo[3,2-e]indol-2-yl)(indolin-1-yl)methanone] showed an IC50 of 0.0089 nM and an Emax at 0.025 µM of 99%. In experiment [2], it took 0.804 nM to reach half-maximal inhibition (IC50) and the Emax at 0.025 µM is 99.7%.
On to `COc1cc2c(cc1OC)N(C(=O)c1cc3c4c(cc(O)c3[nH]1)N(C(=O)c1cc3cc(OC)c(OC)c(OC)c3[nH]1)C[C@H]4CCl)CC2` [Compound 13], for which, in experiment [1] (setting [5]), inhibition was half-maximal at 0.0166 nM (IC50) and the Emax at 0.025 µM was determined as 99.2%. In experiment [2], this compound had an IC50 of 1.79 nM and an Emax at 0.025 µM of 99.5%.
Turning to `COc1cc2cc(C(=O)N3C[C@@H](CCl)c4c3cc(O)c3[nH]c(C(=O)N5CCc6ccncc65)cc43)[nH]c2c(OC)c1OC` [Compound 15], the IC50 in experiment [1] (setting [5]) came to 0.0626 nM; in experiment [2], 9.12 nM; in experiment [3], 0.427 nM; in experiment [4], 0.41 nM. Moreover, the Emax at 0.025 µM in experiment [1] (setting [5]) was determined as 98.1%; in experiment [2], 82.4%. Also, the values for the Emax at 0.03 µM in experiment [3] and in experiment [4] were 91.1% and 96.5%, respectively.
For `COc1cc2cc(C(=O)N3C[C@@H](CCl)c4c3cc(O)c3[nH]c(C(=O)N5CCc6cc(OCCN7CCOCC7)ccc65)cc43)[nH]c2c(OC)c1OC` [Compound 17], the IC50 worked out at 0.0179 nM in experiment [1] (setting [5]), 2.59 nM in experiment [2], 0.245 nM in experiment [3] and 0.217 nM in experiment [4]. The Emax at 0.025 µM in experiment [1] (setting [5]) stood at 99.3%; in experiment [2], 97.6%. Also, the values for the Emax at 0.03 µM in experiment [3] and in experiment [4] were 94.2% and 97.6%, respectively.
In the case of `COc1cc2cc(C(=O)N3C[C@@H](CCl)c4c3cc(O)c3ccccc43)[nH]c2c(OC)c1OC` [Compound 38, reference compound], the values for the IC50 in experiment [1] (setting [5]) and in experiment [2] were 0.561 nM and 0.791 nM, respectively. Moreover, the Emax at 0.025 µM in experiment [1] (setting [5]) was 97.4%; in experiment [2] it was 99.5%.
The compound `COC(=O)c1cc2c3c(cc(O)c2[nH]1)N(C(=O)c1cc2cc(OC)c(OC)c(OC)c2[nH]1)C[C@H]3CCl` [Compound 39, (S)-seco-duocarmycin SA, reference compound] registered an IC50 in experiment [1] (786-0 (CD70-positive), first test of benchmark free drug and ADC) of 0.065 nM.

Values taken from patent US20260317329A1, “DRUG LINKERS AND ANTIBODY CONJUGATES THEREOF” (Ambrx, Inc., priority 2022, published 2026).
